pKi: −log10 of the molar value. Where a name gives a salt, the structure may show the parent alone.
Columns and labels:
[1] = molecular target: T1, catalytic domain of human stromelysin (Hsln) (Homo sapiens, UniProt P08254); assay: Fluorometric MCA-peptide hydrolysis assay, stromelysin (Hsln); assay type: biochemical; settings: apparent Ki; 10 μM MCA peptide substrate, 37° C., pH 7.5; read-out: Hsln (Ki,app)
T1 construct: The catalytic domain of human stromelysin (Hsln) was obtained by expression and purification of a C-terminally truncated prostromelysin-1; made in house; host or cells: E. coli BL21
Protocol: The catalytic domain of human stromelysin (Hsln) was obtained by expression and purification of a C-terminally truncated prostromelysin-1 from E. coli host BL21 (see Marcy et al. Biochem., 1991, 30, 6476). The subsequent activation of the mature form (Hsln) was completed with 2 mM APMA for 1 hour at 37° C., followed by separation using a sizing column.
(§1) Assays were performed in assay buffer (50 mM Tricine pH 7.5, 200 mM sodium chloride, 10 mM calcium chloride, 0.5 mM zinc acetate containing 2% dimethyl sulfoxide (DMSO)) once the substrate and inhibitor were diluted into it. Stock solutions of inhibitors were prepared in 100% DMSO. Stock solutions of the substrate were prepared in 100% DMSO at a concentration of 6 mM.
(§2) The assay method was based on the hydrolysis of MCA-Pro-Leu-Gly-Leu-DPA-Ala-Arg-NH2 (American Peptide Co.) at 37° C. (see Knight, C. G. et al., FEBS, 1992, 296, 263-266). The fluorescence changes were monitored with a Perkin-Elmer LS-50B fluorimeter using an excitation wavelength of 328 nm and an emission wavelength of 393 nm. The substrate concentration used in the assays was 10 μM. The inhibitor was diluted into the assays from a solution in 100% DMSO, and controls substituted an equal volume of DMSO so that the final DMSO concentration from inhibitor and substrate dilution in all assays was 2%. […] Proper determination of steady-state rates of substrate cleavage required assay lengths of 60 minutes to allow for complete equilibration of the enzyme-inhibitor complex.
(§3) The Km for the MCA peptide substrate with the matrix metalloproteinases is quite high and exceeds its solubility under assay conditions. Consequently, the apparent Ki (Ki,app) was determined to describe the strength of inhibition. However, in this case, Ki,app would be essentially equal to Ki since [S]<<Km. For the determination of Ki,app, the concentration of the inhibitor was varied at a constant and low concentration of substrate and the steady-state rates of fluorescence change determined. In most cases absorptive quench due to the presence of ligand was not observed. For slow-binding inhibitors, onset of inhibition curves were collected for at least 45 minutes so that equilibrium was established. Steady-state rates of fluorescence change were obtained by fitting a curve to an equation for a single exponential decay containing a linear phase. The fitted value of the linear phase was taken as the steady-state rate. The steady-state rates were fitted to the Michaelis equation describing competitive inhibition by non-linear methods. Data resulting from tight-binding inhibition was analyzed, and Ki,app determined by fitting the data to the tight-binding equation of Morrison (Biochem. Biophys. Acta, vol. 185, pp. 269-286 (1969)) by non-linear methods.

Human matrilysin (Matr) = molecular target: T2, Human matrilysin (Matr) (Homo sapiens, UniProt P09237); assay: Fluorometric MCA-peptide hydrolysis assay, matrilysin (Matr); assay type: biochemical; settings: apparent Ki; 10 μM MCA peptide substrate, 37° C., pH 7.5; read-out: Matr (Ki,app)
T2 construct: the catalytic domain was liberated by treatment with 2 mM APMA at 37° C. for 2 hours; ubiquitin (cleaved yes); made in house; host or cells: E. coli
T2 sequence (P09237 95-267): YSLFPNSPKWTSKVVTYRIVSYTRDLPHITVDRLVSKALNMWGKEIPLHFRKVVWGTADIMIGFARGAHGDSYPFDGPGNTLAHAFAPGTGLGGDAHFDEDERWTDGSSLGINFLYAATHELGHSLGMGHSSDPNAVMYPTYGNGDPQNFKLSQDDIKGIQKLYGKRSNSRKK
Protocol: Human matrilysin (Matr) was expressed in E. coli as a fusion protein with ubiquitin. After purification of the matrilysin/ubiquitin fusion from inclusion bodies, the catalytic domain was liberated by treatment with 2 mM APMA at 37° C. for 2 hours. Final purification was complete using copper chelate chromatography.
as §1, §2, §3

[2] = molecular target: T3, fibroblast collagenase-1 catalytic domain (HFC) (Homo sapiens, UniProt P03956); assay: Fluorometric MCA-peptide hydrolysis assay, fibroblast collagenase-1 (HFC); assay type: biochemical; settings: apparent Ki; 10 μM MCA peptide substrate, 37° C., pH 7.5; read-out: HFC (Ki,app)
T3 construct: The catalytic domain of human collagenase-1 was expressed as a fusion protein with ubiquitin in E. coli; ubiquitin (cleaved yes); made in house; host or cells: E. coli
T3 sequence (P03956 100-269 limits assumed): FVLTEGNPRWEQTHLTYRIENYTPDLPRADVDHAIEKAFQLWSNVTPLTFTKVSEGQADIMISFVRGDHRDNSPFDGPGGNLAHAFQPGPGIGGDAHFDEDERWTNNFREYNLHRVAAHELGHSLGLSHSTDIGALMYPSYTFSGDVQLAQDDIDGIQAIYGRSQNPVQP
Protocol: The catalytic domain of human collagenase-1 was expressed as a fusion protein with ubiquitin in E. coli (see Gehring, E. R., J Biol. Chem., 1995, 270, 22507). After purification of the fusion protein, the fibroblast collagenase-1 catalytic domain (HFC) was released either by treatment with purified, active stromelysin-1 (1:50 w/w ratio), which generated nearly 100% N-terminal Phe1, or by autoprocessing the concentrated collagenase-1 fusion and then incubating at 37° C. for 1 hour. Final purification was completed using zinc chelate chromatography.
as §1, §2, §3

[3] = molecular target: T4, human progelatinase A (GelA), catalytic and fibronectin-like portion (Homo sapiens, UniProt P08253); assay: Fluorometric MCA-peptide hydrolysis assay, gelatinase A (GelA); assay type: biochemical; settings: apparent Ki; 10 μM MCA peptide substrate, 37° C., pH 7.5
T4 construct: The catalytic and fibronectin-like portion of human progelatinase A (GelA) was expressed as a fusion protein with ubiquitin; ubiquitin; made in house; host or cells: E. coli
Protocol: The catalytic and fibronectin-like portion of human progelatinase A (GelA) was expressed as a fusion protein with ubiquitin in E. Coli. Assays were carried out on autocatalytically activated material.
as §1, §2, §3

[4] = molecular target: T5, human collagenase-3 (Coll3) (Homo sapiens, UniProt P45452); assay: Fluorometric MCA-peptide hydrolysis assay, collagenase-3 (Coll3); assay type: biochemical; settings: apparent Ki; 10 μM MCA peptide substrate, 37° C., pH 7.5; read-out: Coll3 (Ki,app)
T5 construct: the catalytic domain was liberated by treatment with 2 mM APMA at room temperature overnight; ubiquitin (N, cleaved yes); made in house; host or cells: E. coli
Protocol: The propeptide and catalytic domain of human collagenase-3 (Coll3) was expressed in E. coli as an N-terminal fusion protein with ubiquitin. After purification of the fusion from inclusion bodies, the catalytic domain was liberated by treatment with 2 mM APMA at room temperature overnight. Final purification was completed using copper chelate chromatography.
as §1, §2
as §3, with “In most cases absorptive quench due to the presence of ligand was not observed.” left out

T1 sequence (P08254 100-272 limits assumed): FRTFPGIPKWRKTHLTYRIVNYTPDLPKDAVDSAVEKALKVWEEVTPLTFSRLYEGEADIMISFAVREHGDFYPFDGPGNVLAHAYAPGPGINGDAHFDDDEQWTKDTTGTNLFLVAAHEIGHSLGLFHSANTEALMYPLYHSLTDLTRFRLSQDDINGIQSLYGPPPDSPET
T4 sequence (P08253 110-465 limits assumed): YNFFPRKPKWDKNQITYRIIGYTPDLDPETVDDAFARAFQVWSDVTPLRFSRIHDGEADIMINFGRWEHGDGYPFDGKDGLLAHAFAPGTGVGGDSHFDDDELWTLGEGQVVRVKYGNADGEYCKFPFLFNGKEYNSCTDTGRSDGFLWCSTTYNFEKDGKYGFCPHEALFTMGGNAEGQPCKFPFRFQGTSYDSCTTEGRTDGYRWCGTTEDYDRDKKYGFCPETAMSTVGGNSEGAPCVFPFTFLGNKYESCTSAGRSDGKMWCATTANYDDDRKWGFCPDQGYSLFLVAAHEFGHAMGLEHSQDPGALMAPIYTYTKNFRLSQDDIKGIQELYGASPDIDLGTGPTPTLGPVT

**Q.** With `O=C(O)C[C@H](C(=O)N[C@H]1Cc2cn(c3ccccc23)CCCCCCNC1=O)n1cccc1` [Example 1(o), N-(9-oxo-1,8-Diaza-tricyclo[10.6.1.0^13,18]nonadeca-12(19), 13,15,17-tetraen-10S-yl)-3(R)-1H-pyrrol-1-yl-succinamic Acid] as the compound, how does the pKi [1] read?
**A.** < 5.00

**Q.** And the pKi (Human matrilysin (Matr))?
**A.** 4.82

**Q.** And the pKi [2]?
**A.** 4.29

**Q.** And the melting point?
**A.** 139 to 144 °C

**Q.** What does the source list for `O=C(O)C[C@H](C(=O)N[C@H](CO)c1ccccc1)n1ccc(-c2ccc(-c3ccncc3)cc2)c1` [Example 5(b), N-(2-Hydroxy-1(S)-phenylethyl)-3(R)-[3-[4-(pyridin-4-yl)phenyl]-1H-pyrrol-1-yl]succinamic Acid]?
**A.** pKi [1]: 7.52; pKi (Human matrilysin (Matr)): 5.28; pKi [2]: < 4.92; GelA (Ki,app) [3]: 1.04 nM; pKi [4]: 8.04

**Q.** Which results are given for `CC(C)(C)[C@H](NC(=O)[C@@H](CC(=O)O)n1ccc(-c2ccc(-c3ccc(C#N)cc3)cc2)c1)C(=O)Nc1ccncc1` [Example 5(d), 3(R)-[3-(4′-Cyanobiphenyl-4-yl)-1H-pyrrol-1-yl]-N-[2,2-dimethyl-1(S)-(pyridin-4-ylcarbamoyl)propyl]succinamic Acid Formate Salt]?
**A.** pKi [1]: 8.80; pKi (Human matrilysin (Matr)): 8.35; pKi [2]: < 5.70; GelA (Ki,app) [3]: 0.028 nM; pKi [4]: 9.64

**Q.** Which results are given for `CNC(=O)[C@@H](NC(=O)C(CC(=O)NO)n1cnc(-c2ccc(-c3ccccc3)cc2)c1)C(C)(C)C` (mixture of isomers) [Example 19(e)]?
**A.** pKi [1]: 8.64; pKi [2]: 6.51; pKi [4]: 9.89

**Q.** What does the source list for `N#Cc1ccc(-c2ccc(-c3ccn([C@H](CC(=O)O)C(=O)N[C@H](CO)Cc4ccccc4)c3)cc2)cc1` [Example 4(a), N-(1(S)-Benzyl-2-hydroxyethyl)-3(R)-[3-(4′-cyanobiphenyl-4-yl)-1H-pyrrol-1-yl]succinamic Acid]?
**A.** pKi [1]: 7.52; pKi (Human matrilysin (Matr)): 5.28; GelA (Ki,app) [3]: 1.3 nM; pKi [4]: 8.57; melting point: 189 to 192 °C

**Q.** Which results are given for `CC(C)(C)[C@@H](CO)NC(=O)[C@H](CC(=O)NO)n1cnc(-c2ccc(-c3ccccc3)cc2)c1` [Example 19(d), 3(S)-(3-Biphenyl-4-yl-1H-imidazol-1-yl)-N^4-(2,2-dimethyl-1(S)-hydroxymethylpropyl)-N^1-hydroxy-succindiamide]?
**A.** pKi [1]: 6.92; pKi [2]: < 4.00; pKi [4]: 7.37; melting point: 134.5 to 136.5 °C

**Q.** With `CNC(=O)[C@@H](NC(=O)C(CC(=O)O)n1cnc(-c2ccc(-c3ccccc3)cc2)c1)C(C)(C)C` (mixture of isomers) [Example 18(c)] as the compound, how does the pKi [1] read?
**A.** 6.74

**Q.** And the pKi [2]?
**A.** 4.62

**Q.** And the pKi [4]?
**A.** 7.51

**Q.** What about the melting point of the same compound?
**A.** 187 to 188.2 °C

**Q.** With `COC(=O)c1ccc(NC(=O)[C@H](CC(C)C)NC(=O)[C@@H](CC(=O)O)n2ccc(-c3ccc(-c4ccccc4)cc3)c2)cc1` [Example 1(k), 4-[2S-[2(R)-[3-(Biphenyl-4-yl)-1H-pyrrol-1-yl]-3-carboxy-propionylamino]-4-methyl-pentanoylamino]benzoic Acid Methyl Ester] as the compound, how does the pKi [1] read?
**A.** 9.82

**Q.** And the pKi (Human matrilysin (Matr))?
**A.** 7.96

**Q.** What about the GelA (Ki,app) [3] of the same compound?
**A.** 1.9 nM

**Q.** And the pKi [4]?
**A.** 7.40

**Q.** And the melting point?
**A.** 209 to 211 °C

**Q.** With `O=C(CC(C(=O)N[C@H]1CCCCNC1=O)n1cnc(-c2ccc(-c3ccccc3)cc2)c1)NO` (mixture of isomers) [Example 19(a)] as the compound, how does the pKi [1] read?
**A.** 7.51

**Q.** And the pKi [2]?
**A.** 4.24

**Q.** What about the pKi [4] of the same compound?
**A.** 7.37

**Q.** With `CC(C)(C)[C@@H](CO)NC(=O)[C@@H](CC(=O)NO)n1cnc(-c2ccc(-c3ccccc3)cc2)c1` [Example 19(c), 3(R)-(3-Biphenyl-4-yl-1H-imidazol-1-yl)-N^4-(2,2-dimethyl-1(S)-hydroxymethylpropyl)-N^1-hydroxy-succindiamide] as the compound, how does the pKi [1] read?
**A.** 7.77

**Q.** What about the pKi [2] of the same compound?
**A.** 4.35

**Q.** What about the pKi [4] of the same compound?
**A.** 8.19

**Q.** And the melting point?
**A.** 157.5 to 160 °C

**Q.** With `CNC(=O)[C@@H](NC(=O)[C@@H](CC(=O)O)n1ccc(-c2ccncc2)c1)C(C)(C)C` [Example 1(d), N-[2,2-Dimethyl-1(S)-(methylcarbamoyl)propyl]-3(R)-[3-(pyridin-4-yl)-1H-pyrrol-1-yl]succinamic Acid] as the compound, how does the pKi [1] read?
**A.** 5.91

**Q.** What about the pKi [2] of the same compound?
**A.** 5.35

**Q.** And the GelA (Ki,app) [3]?
**A.** 3.9 nM

**Q.** And the pKi [4]?
**A.** 7.62

**Q.** And the melting point?
**A.** 145 to 148 °C

**Q.** With `O=C(O)C[C@H](C(=O)N[C@@H]1c2ccccc2C[C@H]1O)n1ccc(-c2ccc(-c3ccncc3)cc2)c1` [Example 6(a), N-(2(R)-Hydroxyindan-1(R)-yl)-3(R)-[3-[4-(pyridin-4-yl)phenyl]-1H-pyrrol-1-yl]succinamic Acid] as the compound, how does the pKi [1] read?
**A.** 7.82

**Q.** What about the pKi (Human matrilysin (Matr)) of the same compound?
**A.** 5.82

**Q.** What about the pKi [2] of the same compound?
**A.** 5.05

**Q.** And the GelA (Ki,app) [3]?
**A.** 6.62 nM

**Q.** What about the pKi [4] of the same compound?
**A.** 7.81

**Q.** What does the source list for `CC(C)(C)[C@@H](CO)NC(=O)C(CC(=O)NO)n1cnc(-c2ccc(-c3ccccc3)cc2)c1` (mixture of isomers) [Example 19(b), 3(RS)-(3-Biphenyl-4-yl-1H-imidazol-1-yl)-N^4-(2,2-dimethyl-1(S)-hydroxymethylpropyl)-N^1-hydroxy-succindiamide]?
**A.** pKi [1]: 7.77; pKi [2]: 4.18; pKi [4]: 8.01
